# Experimental data published in patent US20230047825A1, “ANTIMICROBIAL PEPTIDES” (priority 2019, published 2023).
# Where a SMILES comes first, the peptide text is derived from it.
# Assays:
# [1] = system: A549; assay: Cytotoxicity assay; format: cell-based; conditions: value printed in parentheses
# [2] = system: P. aeruginosa RP73; assay: Antibacterial activity assay (broth microdilution MIC); format: cell-based, Pseudomonas aeruginosa; conditions: in µg/mL; for MIC on initial panels: medium and unit not given; for MIC: untitled table, medium/unit not given
# Method: Antibacterial activity assay.
# (§1) Synergy experiments were performed following a checkerboard protocol.
# [3] = system: Calu-3; assay: Cytotoxicity assay; format: cell-based; conditions: value printed in parentheses
# [4] = system: Staphylococcus aureus ATCC BAA-1556 (USA300, MRSA); assay: microbe, parasite or virus in culture; conditions: ATCC BAA-1556
# Method: (§2) The S. aureus strains ATCC 29213, ATCC 19636, ATCC 33591 (MRSA), BAA-1556 (MRSA USA 300) were obtained from the American Type Culture Collection (ATCC). […] The species identity was confirmed with 16S rRNA analysis.
# (§3) Two broth mediums were used, Mueller Hinton Broth and RPMI 1640+5% fetal bovine serum. Test substances were evaluated in 11-point titrations and performed in duplicate.
# (§4) The direct colony suspension method was used to prepare inoculated broth. Isolated colonies were taken from an 18-24 h culture plate. Optical density measurements (OD620nm) were used to estimate the bacterial density. […] The stock solutions were diluted by 2-fold serial titrations with their respective vehicles for a total of 11 concentrations.
# (§5) A 4 μL aliquot of each dilution was added to 196 μL of broth medium seeded with the organism in wells of a sterilized 96 well polypropylene plate (Nunc™ 249949) using aluminum foil as cover. The final bacterial count was 2 to 8×10^5 CFU/mL. […] The final test article concentration range was 32 to 0.0313 μg/mL.
# (§6) Each test substance dilution was evaluated in duplicate on one test occasion. […] Plates were incubated at 35-37° C. for 18 h. The test plates were visually examined and each well was visually scored for growth or complete inhibition of growth. The MIC value was recorded.
# [5] = system: Staphylococcus aureus ATCC 33591 (MRSA); assay: microbe, parasite or virus in culture; conditions: ATCC 33591
# Method: as §2, §3, §4, §5, §6
# [6] = system: Staphylococcus aureus ATCC 19636 (Smith); assay: microbe, parasite or virus in culture; conditions: ATCC 19636
# Method: as §2, §3, §4, §5, §6
# [7] = system: Staphylococcus aureus ATCC 29213; assay: microbe, parasite or virus in culture; conditions: ATCC 29213
# Method: as §2, §3, §4, §5, §6
# [8] = system: Staphylococcus aureus VRS-2 (VanA, VRSA); assay: microbe, parasite or virus in culture; conditions: VRS-2 (VanA)
# Method: as §2, §3, §4, §5, §6
# [9] = system: five S. aureus strains; conditions: Mueller Hinton Broth
# Method: as §3, §4, §5, §6
# [10] = system: panel of Gram-negative or Gram-positive pathogens; conditions: RPMI (5% FCS); Gram-negative isolates, all but the P. aeruginosa isolates
# Method: MICs were determined on the same plates as the FICs to increase reproducibility.
# Methods: The natural AMP (termed AMP1) was modified to produce synthetic variants, AMPs 1a, 2a, 2b, 3a and 3b. Minimum inhibitory concentrations (MICs) were determined using the microbroth dilution assay with Mueller Hinton broth (MHB) or RPMI (with 5% FBS) and stability in serum was tested by conducting MICs in MHB containing 10% FBS. Synergy experiments were performed following a checkerboard protocol. Cytotoxicity was tested against HEK293 and HeLa immortalised human cell-lines using the XTT viability stain and by quantifying haemolysis of human red blood cells. Patch clamp analysis was performed using the Port-a-Patch® automated patch-clamp system on DPhPE/DPhPG (model for a Gram-negative plasma membrane) or DPhPG (Gram-positive) model membranes challenged with peptide. The murine lung infection model was performed using the agar bead model with Staphylococcus aureus strain NCTC 13616 (EMRSA-15).
# [11] = Electrophysiology (Port-a-Patch patch-clamp) on model membranes
# Description: The depth of insertion into each membrane is shown as the Z-position for each residue, averaged over all four peptides, relative to the phosphate group plane in the upper POPE/POPG (A/E/I) or POPG (C/G/K) bilayer leaflet in six MD simulations. Positive or negative values indicate the peptides are below or above the phosphate group. Representative current traces illustrating membrane activity when DPhPE/DPhPG (B/F/J) or DPhPG (D/H/L) model membranes are challenged with each peptide at the indicated concentration (lowest concentration that induced detectable activity). Data is for pleurocidin (A-D), pleurocidin-KR (E-H) and pleurocidin-VA (I-L). Membrane disordering by each peptide in mixed POPE/POPG bilayers is shown with data obtained from ^2H solid-state NMR (M/N) or from MD simulations where order parameters are calculated for all lipids within 4 Å of a peptide (O/P).
# Molecular dynamics simulations. Simulations were carried out on either the ARCHER Cray XC30 supercomputer, or Dell Precision quad core T3400 or T3500 workstations equipped with a 1 kW Power supply (PSU) and two NVIDA PNY GeForce GTX570 or GTX580 graphics cards using Gromacs.^53 The CHARMM36 all-atom force field was used in all simulations^54-56. All simulations were run, as described previously^20 and for a total of 200 nanoseconds and repeated twice, with peptides inserted at different positions and orientations, giving a total of approximately 4.0 μs simulation. Liposome preparation and circular dichroism (CD) spectroscopy. Small unilamellar vesicles (SUV) were produced and far-UV spectra of the peptides obtained as described previously^20 using a Chirascan Plus spectrometer (Applied Photophysics, Leatherhead, UK) with samples maintained at 310 K. For liposome experiments the lipid concentration was 5 mM and a peptide to lipid molar ratio of 1:100 was maintained while the SDS micelles concentration was 20 mM with 200 μM peptide. Electrophysiology experiments (Patch-clamp). Patch clamp experiments were performed using the Port-a-Patch® (Nanion Technologies GmbH, Munich, Germany) with giant unilamellar vesicles (GUVs) composed of DPhPE/DPhPG (60:40, mol:mol) or DPhPG prepared by the electroformation method using the Nanion Vesicle Prep Pro setup (Nanion Technologies GmbH, Munich, Germany) as described previously.^20
# as §1
Structure (SMILES),"Toxicity A549 (EC50), Peptide concentration [1]",MIC on initial panels [2],MIC [2],"Toxicity Calu-3 (EC50), Peptide concentration [3]",Peptide concentration necessary to start membrane activity ([11]; DPhPG) [µM],Peptide concentration necessary to start membrane activity ([11]; DPhPE/DPhPG) [µM],further results
CC(C)C[C@@H](NC(=O)[C@@H](Cc1ccc(O)cc1)NC(=O)[C@@H](Cc1c[nH]cn1)NC(=O)[C@H](NC(=O)[C@@H](CC(C)C)NC(=O)[C@@H](C)NC(=O)[C@@H](C)NC(=O)[C@@H](CCCCN)NC(=O)CNC(=O)[C@H](NC(=O)[C@@H](Cc1c[nH]cn1)NC(=O)[C@@H](CCCCN)NC(=O)CNC(=O)[C@H](NC(=O)[C@@H](Cc1c[nH]cn1)NC(=O)[C@@H](C)NC(=O)[C@@H](C)NC(=O)[C@@H](CCCCN)NC(=O)[C@@H](CCCCN)NC(=O)[C@@H](Cc1ccccc1)NC(=O)[C@@H](Cc1ccccc1)NC(=O)[C@@H](CO)NC(=O)CNC(=O)[C@@H](Cc1c[nH]c2ccccc12)NC(=O)CN)C(C)C)C(C)C)[C@H](C)O)C(N)=O [D-pleurocidin] (HELM PEPTIDE1{G.[dW].G.[dS].[dF].[dF].[dK].[dK].[dA].[dA].[dH].[dV].G.[dK].[dH].[dV].G.[dK].[dA].[dA].[dL].[dT].[dH].[dY].[dL].[am]}$$$$V2.0; N-terminus assumed),(79.3 ± 7.2) μg/ml,8-16,16-32,(41.9 ± 1.8) μg/ml,,,
CC(C)C[C@@H](NC(=O)[C@@H](Cc1ccc(O)cc1)NC(=O)[C@@H](Cc1c[nH]cn1)NC(=O)[C@H](NC(=O)[C@@H](CC(C)C)NC(=O)[C@@H](C)NC(=O)[C@@H](C)NC(=O)[C@@H](CCCNC(=N)N)NC(=O)CNC(=O)[C@H](NC(=O)[C@@H](Cc1c[nH]cn1)NC(=O)[C@@H](CCCNC(=N)N)NC(=O)CNC(=O)[C@H](NC(=O)[C@@H](Cc1c[nH]cn1)NC(=O)[C@@H](C)NC(=O)[C@@H](C)NC(=O)[C@@H](CCCNC(=N)N)NC(=O)[C@@H](CCCNC(=N)N)NC(=O)[C@@H](Cc1ccccc1)NC(=O)[C@@H](Cc1ccccc1)NC(=O)[C@@H](CO)NC(=O)CNC(=O)[C@@H](Cc1c[nH]c2ccccc12)NC(=O)CN)C(C)C)C(C)C)[C@H](C)O)C(N)=O [D-pleurocidin-KR] (HELM PEPTIDE1{G.[dW].G.[dS].[dF].[dF].[dR].[dR].[dA].[dA].[dH].[dV].G.[dR].[dH].[dV].G.[dR].[dA].[dA].[dL].[dT].[dH].[dY].[dL].[am]}$$$$V2.0; N-terminus assumed),(56.5 ± 4.5) μg/ml,16,33,(39.1 ± 1.8) μg/ml,,,MIC [4]: 2 µg/mL; MIC [5]: 2 µg/mL; MIC [6]: 2 µg/mL; MIC [7]: 2 µg/mL; MIC [8]: 2 µg/mL; MIC against the five tested S. aureus strains [9]: 2 µg/mL; effective concentration (MIC) in RPMI [10]: ≤ 4 µg/mL
CC(C)C[C@H](NC(=O)[C@H](Cc1ccc(O)cc1)NC(=O)[C@H](Cc1c[nH]cn1)NC(=O)[C@@H](NC(=O)[C@H](CC(C)C)NC(=O)[C@H](C)NC(=O)[C@H](C)NC(=O)[C@H](CCCCN)NC(=O)CNC(=O)[C@H](C)NC(=O)[C@H](Cc1c[nH]cn1)NC(=O)[C@H](CCCCN)NC(=O)CNC(=O)[C@H](C)NC(=O)[C@H](Cc1c[nH]cn1)NC(=O)[C@H](C)NC(=O)[C@H](C)NC(=O)[C@H](CCCCN)NC(=O)[C@H](CCCCN)NC(=O)[C@H](Cc1ccccc1)NC(=O)[C@H](Cc1ccccc1)NC(=O)[C@H](CO)NC(=O)CNC(=O)[C@H](Cc1c[nH]c2ccccc12)NC(=O)CN)[C@@H](C)O)C(N)=O [Pleurocidin-VA] (H-GWGSFFKKAAHAGKHAGKAALTHYL-NH2; N-terminus assumed),,,,,2.5,,
CC(C)C[C@H](NC(=O)[C@H](Cc1ccc(O)cc1)NC(=O)[C@H](Cc1c[nH]cn1)NC(=O)[C@@H](NC(=O)[C@H](CC(C)C)NC(=O)[C@H](C)NC(=O)[C@H](C)NC(=O)[C@H](CCCNC(=N)N)NC(=O)CNC(=O)[C@@H](NC(=O)[C@H](Cc1c[nH]cn1)NC(=O)[C@H](CCCNC(=N)N)NC(=O)CNC(=O)[C@@H](NC(=O)[C@H](Cc1c[nH]cn1)NC(=O)[C@H](C)NC(=O)[C@H](C)NC(=O)[C@H](CCCNC(=N)N)NC(=O)[C@H](CCCNC(=N)N)NC(=O)[C@H](Cc1ccccc1)NC(=O)[C@H](Cc1ccccc1)NC(=O)[C@H](CO)NC(=O)CNC(=O)[C@H](Cc1c[nH]c2ccccc12)NC(=O)CN)C(C)C)C(C)C)[C@@H](C)O)C(N)=O [Pleurocidin-KR] (H-GWGSFFRRAAHVGRHVGRAALTHYL-NH2; N-terminus assumed),,,,,7.5,10,
"CC(C)C[C@H](NC(=O)[C@H](Cc1ccc(O)cc1)NC(=O)[C@H](Cc1c[nH]cn1)NC(=O)[C@@H](NC(=O)[C@H](CC(C)C)NC(=O)[C@H](C)NC(=O)[C@H](C)NC(=O)[C@H](CCCCN)NC(=O)CNC(=O)[C@@H](NC(=O)[C@H](Cc1c[nH]cn1)NC(=O)[C@H](CCCCN)NC(=O)CNC(=O)[C@@H](NC(=O)[C@H](Cc1c[nH]cn1)NC(=O)[C@H](C)NC(=O)[C@H](C)NC(=O)[C@H](CCCCN)NC(=O)[C@H](CCCCN)NC(=O)[C@H](Cc1ccccc1)NC(=O)[C@H](Cc1ccccc1)NC(=O)[C@H](CO)NC(=O)CNC(=O)[C@H](Cc1c[nH]c2ccccc12)NC(=O)CN)C(C)C)C(C)C)[C@@H](C)O)C(N)=O [Pleurocidin, reference compound] (H-GWGSFFKKAAHVGKHVGKAALTHYL-NH2; N-terminus assumed)",,,,,5,10,
